Counter-ions that a name gives are not always drawn.
Key:
PAR-2 [1] = biological target: T1, PAR-2 (Homo sapiens, UniProt P55085); assay: PAR-2 agonist-mediated intracellular calcium dynamics assay in HCT-15 cells (modified method of Howthorne et al.); format: cell-based; design: HCT-15 cells, human colorectal cancer cell lines endogenously expressing high level of PAR-2; endogenous in cells; host or cells: HCT-15 human colorectal cancer cells; settings: for EC50: HCT-15 cells endogenously expressing PAR-2, Ca2+ sensitive fluorescent dye, 2.5 mM probenecid, serum-free RPMI
T1 sequence (P55085 26-397): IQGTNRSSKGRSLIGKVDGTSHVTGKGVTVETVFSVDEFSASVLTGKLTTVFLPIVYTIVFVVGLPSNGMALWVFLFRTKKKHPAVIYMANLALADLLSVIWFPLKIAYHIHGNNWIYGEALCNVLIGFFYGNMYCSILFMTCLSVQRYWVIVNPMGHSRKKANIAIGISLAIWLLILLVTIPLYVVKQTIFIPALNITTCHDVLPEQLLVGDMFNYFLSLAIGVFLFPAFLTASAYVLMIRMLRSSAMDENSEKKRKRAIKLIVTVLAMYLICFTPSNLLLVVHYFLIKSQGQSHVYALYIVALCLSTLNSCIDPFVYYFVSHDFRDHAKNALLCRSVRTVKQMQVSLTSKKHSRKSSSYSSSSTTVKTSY
Description: The PAR-2 activation of peptide derivatives represented by the general formula (1) can be tested by various known methods. For example, the method of Hollenberg (Hollenberg, M.D., et al., Can. J. Physiol. Pharmacol., 75, 832-841(1997)), the method of Kawabata et al. (Kawabata, A., et al., J. Pharmacol. Exp. Ther., 288, 358-370(1999)), the method of Howthorne et al. (Howthorne et al., A High-Throughput Microtiter Plate-Based Calcium Assay for the Study of Protease-Activated Receptor 2 Activation, Analytical Biochemistry 290, 378-379(2001)), and the like can be used. The present inventors tested PAR-2 activation potency by using the modified method of Howthorne et al. More specifically the method is for assaying calcium dynamics in a cell expressing human PAR-2 intracellularly. In this assay, PAR-2 agonist mediated calcium dynamics (concentration variability) in a cell is measured by using a multiple-well plate reader wherein the cell has Ca^2+ sensitive fluorescent dye introduced and stimulated by PAR-2 agonist under probenecid, which inhibits anion-exchange transporter, present. HCT-15 cells, human colorectal cancer cell lines endogenously expressing high level of PAR-2, were plated in a black-wall clear-bottom 96 well plate. Subconfluent cells were labeled with Ca^2+ sensitive fluorescent dye (Calcium Assay Reagent, Molecular Devices) in a RPMI culture medium in the presence of 2.5 mM probenecid absence of serum, and incubated for 1 hour at 37 ° C. Thereafter, the cells were stimulated with test compounds at various concentrations, and fluorescence change was measured using a scanning fluorometer (Flex Station, Molecular Devices) using excitation wavelength of 485 nm and fluorescence wavelength of 525 nm (cut-off wavelength of 515 nm). As a comparative compound, SLIGKV(SEQ ID: NO 1) —OH which is known as PAR-2 activated peptide was used. The results are shown in TAB.1.

PAR-2 [2] = biological target: T1, PAR-2; settings: relative to TRAP (tethered receptor agonist peptide); cited from earlier work

Molecule	EC50 (PAR-2 [1]) [µM]	agonist activity against PAR-2 (result in words; comparator not given, presumably the comparison compound) (PAR-2 [1]; HCT-15 cells, calcium assay)	intensity to activate PAR-2 relative to TRAP (PAR-2 [2])
O=C(CNC(=O)[C@H](CC1CCCCC1)NC(=O)c1ccco1)NCC(=O)N[C@@H](CCCN1CCCCC1)C(=O)NCc1ccccc1 [Example 1, (S)-2-[(2-furoyl)-β-cyclohexyl-L-alanyl-glycyl-glycyl-amino]-5-(1-piperidinyl)pentanoic acid benzyl amide]	2.3 ± 0.3	higher agonist activity	–
Nα-benzoyl-Arg (NO2)-Leu-NH2	–	–	about 1/100
O=C(CNC(=O)[C@H](CC1CCCCC1)NC(=O)c1ccco1)NCC(=O)N[C@@H](CCCN1CCCCC1)C(=O)NCCN1CCCCC1 [Example 2, (S)-2-[(2-furoyl)-β-cyclohexyl-L-alanyl-glycyl-glycyl-amino]-5-(1-piperidinyl)pentanoic acid N-[2-(1-piperidinyl)ethyl] amide dihydrochloride]	4.1 ± 0.4	–	–
